Measured values reported in US20230146455A1, “TREATMENT OF INFLAMMATORY DISEASES WITH PEPTIDES AND PHARMACEUTICAL COMPOSITIONS” (Yuyu Pharma, Inc., priority 2020, published 2023).
Where “and” joins values, the source holds several entries; their conditions need not be identical. Identical values can stand only once. Where a SMILES comes first, the peptide text is derived from it. [ ]: non-standard residue; d: D form. Hyp = O=C(O)[C@@H]1C[C@@H](O)CN1

Assays:
Type in all cases: cell-based, human
IL-1 beta/IL-1F2 = test: Example 8 main study Luminex, LPS hPBMCs: IL-1 beta/IL-1F2
Description: (§1) Human PBMCs were pretreated with YY-101, YDE-011, YDE-043 or reference compound; Xiidra® at various concentration (ranging from […] to 500 nM) for 2 h before stimulation. An equal volume of 0.5% DMSO was used as a vehicle control. Then, the cells were treated with LPS at 5 ug/ml, which was selected based on the pilot study. The supernatants from treated cells were harvested at 24 h and placed in a 96 well for Luminex cytokine & chemokine profiling using a Luminex 200 multiplex assay (Luminex; R&D system, USA).
(§2) The main study arm with triplicate wells per group in a 24-well plate: • 1. Blank • 2. PBMC: 0.5% DMSO • 3. PBMC+LPS (5 ug/ml) • 4. PBMC+YY-101 500 nM • 5. PBMC+YY-101 50 nM • 6. PBMC+YY-101 5 nM • 7. PBMC+YY-101 0.5 nM • 8. PBMC+LPS (5 ug/ml)+Xiidra® 500 nM • 9. PBMC+LPS (5 ug/ml)+Xiidra® 50 nM • 10. PBMC+LPS (5 ug/ml)+Xiidra® 5 nM • 11. PBMC+LPS (5 ug/ml)+Xiidra® 0.5 nM • 12. PBMC+LPS (5 ug/ml)+Xiidra® 0.05 nM • 13. PBMC+LPS (5 ug/ml)+Xiidra® 0.005 nM • 14. PBMC+LPS (5 ug/ml)+YY-101 500 nM • 15. PBMC+LPS (5 ug/ml)+YY-101 50 nM • 16. PBMC+LPS (5 ug/ml)+YY-101 5 nM • 17. PBMC+LPS (5 ug/ml)+YY-101 0.5 nM • 18. PBMC+LPS (5 ug/ml)+YY-101 0.05 nM • 19. PBMC+LPS (5 ug/ml)+YY-101 0.005 nM • 20. PBMC+LPS (5 ug/ml)+YDE-011 500 nM • 21. PBMC+LPS (5 ug/ml)+YDE-011 50 nM • 22. PBMC+LPS (5 ug/ml)+YDE-011 5 nM • 23. PBMC+LPS (5 ug/ml)+YDE-011 0.5 nM • 24. PBMC+LPS (5 ug/ml)+YDE-011 0.05 nM • 25. PBMC+LPS (5 ug/ml)+YDE-011 0.005 nM • 26. PBMC+LPS (5 ug/ml)+YDE-043 500 nM • 27. PBMC+LPS (5 ug/ml)+YDE-043 50 nM • 28. PBMC+LPS (5 ug/ml)+YDE-043 5 nM • 29. PBMC+LPS (5 ug/ml)+YDE-043 0.5 nM • 30. PBMC+LPS (5 ug/ml)+YDE-043 0.05 nM • 31. PBMC+LPS (5 ug/ml)+YDE-043 0.005 nM
(§3) Multiplex assay was used to measure 30 cytokines and chemokines. The 1:200 diluted cell supernatant and serial dilution of the standard were dispensed into a 96 well plate at 50 ul/well. Then, the pre-mixed cocktail of antibody-coated magnetic beads was dispensed at 50 ul/well and incubated at room temperature for 2 h in a horizontal orbital microplate shaker at 800±500 rpm. The beads were washed using a magnetic device to prevent loss. The biotin-antibody was dispensed in 50 ul of each well and incubated at room temperature for 1 h in a shaker at 800±500 rpm. After washing, streptavidin-PE was added at 50 ul/well and incubated at room temperature for 30 min in a shaker under the same conditions. Finally, after washing, wash buffer (100 ul/well) was added to the plate and incubated in a shaker for 2 min. The Luminex™ 200 setting were set according to the manufacturer's protocol. The data was calculated with a standard five-parameter logistic nonlinear regression analysis of the data (xPonent software 4.2, USA). Results were presented as concentration (ng/ml or pg/ml).

TIMP-1 = test: Example 8 main study Luminex, LPS hPBMCs: TIMP-1; settings: PBMC + LPS(5 ug/ml)
Description: as §1, §2, §3

MMP-9 = test: Example 8 main study Luminex, LPS hPBMCs: MMP-9; settings: PBMC + LPS(5 ug/ml)
Description: as §1, §2, §3

[1] = PBMC + LPS(5 ug/ml) + test article 0.005 nM, Mean
[2] = PBMC + LPS(5 ug/ml) + test article 0.005 nM, individual replicates
[3] = PBMC + LPS(5 ug/ml) + test article 0.05 nM, Mean
[4] = PBMC + LPS(5 ug/ml) + test article 0.05 nM, individual replicates
[5] = PBMC + LPS(5 ug/ml) + test article 0.5 nM, Mean
[6] = PBMC + LPS(5 ug/ml) + test article 0.5 nM, individual replicates
[7] = PBMC + LPS(5 ug/ml) + test article 5 nM, Mean
[8] = PBMC + LPS(5 ug/ml) + test article 5 nM, individual replicates
[9] = PBMC + LPS(5 ug/ml) + test article 50 nM, Mean
[10] = PBMC + LPS(5 ug/ml) + test article 50 nM, individual replicates
[11] = PBMC + LPS(5 ug/ml) + test article 500 nM, Mean
[12] = PBMC + LPS(5 ug/ml) + test article 500 nM, individual replicates
[13] = test article 0.005 nM, single replicates
[14] = test article 0.05 nM, single replicates
[15] = test article 0.5 nM, single replicates
[16] = test article 5 nM, single replicates
[17] = test article 50 nM, single replicates
[18] = test article 500 nM, single replicates

**Q.** What does the source list for CC(C)C[C@H](NC(=O)[C@H](CCC(N)=O)NC(=O)CNC(=O)[C@@H]1C[C@@H](O)CN1)C(=O)NCC(=O)O [YDE-043] (H-[Hyp]GQLG-OH; N-terminus and C-terminus assumed)?
**A.** LPS-induced IL-1b levels (in words) (IL-1 beta/IL-1F2; LPS 5 ug/mL 24 hrs): significantly lowered; IL-1 beta/IL-1F2 Concentration (IL-1 beta/IL-1F2; [1]): 5499.4 pg/mL; IL-1 beta/IL-1F2 MFI (IL-1 beta/IL-1F2; [1]): 100.0; IL-1 beta/IL-1F2 Concentration (IL-1 beta/IL-1F2; [2]): 4547.7 pg/mL and 5320.3 pg/mL and 6630.3 pg/mL; IL-1 beta/IL-1F2 MFI (IL-1 beta/IL-1F2; [2]): 84.0 and 97.0 and 119.0; IL-1 beta/IL-1F2 Concentration (IL-1 beta/IL-1F2; [3]): 4458.6 pg/mL; IL-1 beta/IL-1F2 MFI (IL-1 beta/IL-1F2; [3]): 82.5; IL-1 beta/IL-1F2 Concentration (IL-1 beta/IL-1F2; [4]): 4488.3 pg/mL and 4428.9 pg/mL and 4458.6 pg/mL; IL-1 beta/IL-1F2 MFI (IL-1 beta/IL-1F2; [4]): 83.0 and 82.0 and 82.5; IL-1 beta/IL-1F2 Concentration (IL-1 beta/IL-1F2; [5]): 4725.9 pg/mL; IL-1 beta/IL-1F2 MFI (IL-1 beta/IL-1F2; [5]): 87.0; IL-1 beta/IL-1F2 Concentration (IL-1 beta/IL-1F2; [6]): 4963.6 pg/mL and 4785.3 pg/mL and 4428.9 pg/mL; IL-1 beta/IL-1F2 MFI (IL-1 beta/IL-1F2; [6]): 91.0 and 88.0 and 82.0; IL-1 beta/IL-1F2 Concentration (IL-1 beta/IL-1F2; [7]): 5379.8 pg/mL; IL-1 beta/IL-1F2 MFI (IL-1 beta/IL-1F2; [7]): 98.0; IL-1 beta/IL-1F2 Concentration (IL-1 beta/IL-1F2; [8]): 5379.8 pg/mL and 5558.3 pg/mL and 5201.4 pg/mL; IL-1 beta/IL-1F2 MFI (IL-1 beta/IL-1F2; [8]): 98.0 and 101.0 and 95.0; IL-1 beta/IL-1F2 Concentration (IL-1 beta/IL-1F2; [9]): 5280.8 pg/mL; IL-1 beta/IL-1F2 MFI (IL-1 beta/IL-1F2; [9]): 96.3; IL-1 beta/IL-1F2 Concentration (IL-1 beta/IL-1F2; [10]): 5588.1 pg/mL and 5469.1 pg/mL and 4785.3 pg/mL; IL-1 beta/IL-1F2 MFI (IL-1 beta/IL-1F2; [10]): 101.5 and 99.5 and 88.0; IL-1 beta/IL-1F2 Concentration (IL-1 beta/IL-1F2; [11]): 4508.2 pg/mL; IL-1 beta/IL-1F2 MFI (IL-1 beta/IL-1F2; [11]): 83.3; IL-1 beta/IL-1F2 Concentration (IL-1 beta/IL-1F2; [12]): 4428.9 pg/mL and 4191.5 pg/mL and 4904.1 pg/mL; IL-1 beta/IL-1F2 MFI (IL-1 beta/IL-1F2; [12]): 82.0 and 78.0 and 90.0; TIMP-1 Concentration (pg/ml), Mean (TIMP-1; test article 0.005 nM): 4681.6 pg/mL; TIMP-1 Concentration (pg/ml), single replicates (TIMP-1; test article 0.005 nM): 3935.4 pg/mL and 5543.0 pg/mL and 4566.3 pg/mL; TIMP-1 Concentration (pg/ml), Mean (TIMP-1; test article 0.05 nM): 4088.2 pg/mL; TIMP-1 Concentration (pg/ml), single replicates (TIMP-1; test article 0.05 nM): 4259.2 pg/mL and 4414.6 pg/mL and 3590.9 pg/mL; TIMP-1 Concentration (pg/ml), Mean (TIMP-1; test article 0.5 nM): 4203.1 pg/mL; TIMP-1 Concentration (pg/ml), single replicates (TIMP-1; test article 0.5 nM): 4259.2 pg/mL and 4414.6 pg/mL and 3935.4 pg/mL; TIMP-1 Concentration (pg/ml), Mean (TIMP-1; test article 5 nM): 4463.9 pg/mL; TIMP-1 Concentration (pg/ml), single replicates (TIMP-1; test article 5 nM): 4566.3 pg/ml (2×) and 4259.2 pg/ml; TIMP-1 Concentration (pg/ml), Mean (TIMP-1; test article 50 nM): 4351.3 pg/mL; TIMP-1 Concentration (pg/ml), single replicates (TIMP-1; test article 50 nM): 3935.4 pg/mL and 4859.3 pg/mL and 4259.2 pg/mL; TIMP-1 Concentration (pg/ml), Mean (TIMP-1; test article 500 nM): 4299.5 pg/mL; TIMP-1 Concentration (pg/ml), single replicates (TIMP-1; test article 500 nM): 4566.3 pg/ml (2×) and 3766.0 pg/ml; Concentration (pg/ml), MMP-9 (MMP-9; test article 0.005 nM, Mean): 5247.2 pg/mL; MFI (Bead name: MMP-9) (MMP-9; test article 0.005 nM, Mean): 33.0; Concentration (pg/ml), MMP-9 (MMP-9; [13]): 3994.2 pg/mL and 5555.3 pg/mL and 6192.0 pg/mL; MFI (Bead name: MMP-9) (MMP-9; [13]): 29.0 and 34.0 and 36.0; Concentration (pg/ml), MMP-9 (MMP-9; test article 0.05 nM, Mean): 3943.4 pg/mL; MFI (Bead name: MMP-9) (MMP-9; test article 0.05 nM, Mean): 28.8; Concentration (pg/ml), MMP-9 (MMP-9; [14]): 3994.2 pg/mL and 4148.1 pg/mL and 3688.0 pg/mL; MFI (Bead name: MMP-9) (MMP-9; [14]): 29.0 and 29.5 and 28.0; Concentration (pg/ml), MMP-9 (MMP-9; test article 0.5 nM, Mean): 3536.4 pg/mL; MFI (Bead name: MMP-9) (MMP-9; test article 0.5 nM, Mean): 27.5; Concentration (pg/ml), MMP-9 (MMP-9; [15]): 3688.0 pg/ml (2×) and 3233.2 pg/ml; MFI (Bead name: MMP-9) (MMP-9; [15]): 28.0 (2×) and 26.5; Concentration (pg/ml), MMP-9 (MMP-9; test article 5 nM, Mean): 3842.1 pg/mL; MFI (Bead name: MMP-9) (MMP-9; test article 5 nM, Mean): 28.5; Concentration (pg/ml), MMP-9 (MMP-9; [16]): 4302.5 pg/mL and 3688.0 pg/mL and 3535.8 pg/mL; MFI (Bead name: MMP-9) (MMP-9; [16]): 30.0 and 28.0 and 27.5; Concentration (pg/ml), MMP-9 (MMP-9; test article 50 nM, Mean): 3892.8 pg/mL; MFI (Bead name: MMP-9) (MMP-9; test article 50 nM, Mean): 28.7; Concentration (pg/ml), MMP-9 (MMP-9; [17]): 3688.0 pg/ml (2×) and 4302.5 pg/ml; MFI (Bead name: MMP-9) (MMP-9; [17]): 28.0 (2×) and 30.0; Concentration (pg/ml), MMP-9 (MMP-9; test article 500 nM, Mean): 4100.4 pg/mL; MFI (Bead name: MMP-9) (MMP-9; test article 500 nM, Mean): 29.3; Concentration (pg/ml), MMP-9 (MMP-9; [18]): 3688.0 pg/ml (2×) and 4925.2 pg/ml; MFI (Bead name: MMP-9) (MMP-9; [18]): 28.0 (2×) and 32.0
